The assay concerns the target T1, Human complement C1s enzyme (Homo sapiens, UniProt P09871).
T1 construct: purified from human serum, Complement Technology, Inc; purchased Complement Technology, Inc; host or cells: human serum (plasma-derived native protein)
T1 sequence (P09871 438-688 limits assumed): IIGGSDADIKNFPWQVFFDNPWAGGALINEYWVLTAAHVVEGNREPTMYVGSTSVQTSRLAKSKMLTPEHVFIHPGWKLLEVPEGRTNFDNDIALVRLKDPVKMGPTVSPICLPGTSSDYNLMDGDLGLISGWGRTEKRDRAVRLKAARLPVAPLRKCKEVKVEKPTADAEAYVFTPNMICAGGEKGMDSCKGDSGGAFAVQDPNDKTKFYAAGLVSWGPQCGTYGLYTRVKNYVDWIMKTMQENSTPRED
T1 sequence (P09871 16-437 partner limits assumed): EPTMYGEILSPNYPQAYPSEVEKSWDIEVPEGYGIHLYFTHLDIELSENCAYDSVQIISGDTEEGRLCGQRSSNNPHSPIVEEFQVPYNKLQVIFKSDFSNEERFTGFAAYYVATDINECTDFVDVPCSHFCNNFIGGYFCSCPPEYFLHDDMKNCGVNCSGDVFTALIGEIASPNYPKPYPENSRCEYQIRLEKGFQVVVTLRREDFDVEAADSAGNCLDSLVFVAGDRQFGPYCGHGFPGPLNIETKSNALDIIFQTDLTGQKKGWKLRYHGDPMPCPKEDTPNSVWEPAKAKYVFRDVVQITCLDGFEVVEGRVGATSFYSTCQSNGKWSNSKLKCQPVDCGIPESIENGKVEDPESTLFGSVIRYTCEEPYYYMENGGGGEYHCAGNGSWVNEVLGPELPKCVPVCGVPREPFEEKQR
As to the kind of experiment: Human C1s enzyme assay. The following applies: human complement C1s enzyme 1.16 nM, substrate Z-L-Lys-SBzl, A405; read-out: IC50 (Stars). The class given is biochemical. In short, it runs like this: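 Thioesterase activity followed colorimetrically (DTNB, A405, 30-s reads) using 100 μM Z-L-Lys-SBzl substrate. Enzyme, human serum-derived C1s at 1.16 nM final, was incubated with test compound for 5 min, room temperature, pH 7.5 Tris buffer with 1 M NaCl. Rate-versus-concentration data fitted by nonlinear regression for IC50.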

A value given as a limit tells only on which side of the number the result lay.

By IC50 is commonly meant the concentration at which inhibition is half-maximal. As for `O=C(Cn1c(-c2ccccc2)ncc(NCc2cc3ccc2CCc2ccc(cc2)CC3)c1=O)NCc1cc2cnccc2[nH]1` [Compound 43, 2-(5-((1,4(1,4)-dibenzena-cyclohexaphane-1(2)-ylmeth-yl)amino)-6-oxo-2-phenylpyr-imidin-1(6H)-yl)-N-((1H-pyr-rolo[3,2-c]pyridin-2-yl)meth-yl)acetamide], the IC50 was more than 1000 nM.
On to `O=C(Cn1c(-c2ccc(O[C@@H]3CO[C@H]4[C@@H]3OC[C@H]4O)cc2)ncc(NC(=O)c2cnc(-c3ccccc3)s2)c1=O)NCc1cc2cnccc2[nH]1` [Compound 263, N-(1-(2-(((1H-pyrrolo[3,2-c]pyridine-2-yl)methyl)amino)-2-oxoethyl)-2-(4-(((3R,3aR,6R,6aR)-6-hydroxyhexahydrofuro[3,2-b]furan-3-yl)oxy)phenyl)-6-oxo-1,6-dihydropyrimidin-5-yl)-2-phenylthiazole-5-carboxamide], for which the IC50 was less than 100 nM.
In the case of `C[C@@H](Nc1cnc(C2CCCC2)n(CC(=O)NCc2cc3cnccc3[nH]2)c1=O)c1coc(-c2ccccc2)n1` [Compound 476, (R)-N-((1H-pyrrolo[3,2-c]pyridin-2-yl)methyl)-2-(2-cyclopentyl-6-oxo-5-((1-(2-phenyloxazol-4-yl)ethyl)-amino)pyrimidin-1(6H)-yl)-acetamide], the IC50 lay in the range of 100 to 1000 nM.
Under `O=C(Cn1c(N2CCOCC2)ncc(NC(=O)CCc2ccccc2)c1=O)NCc1cc2cnccc2[nH]1` [Compound 409, N-(1-(2-(((1H-pyrrolo[3,2-c]pyridin-2-yl)methyl)amino)-2-oxoethyl)-2-morpholino-6-oxo-1,6-dihydropyrimidin-5-yl)-3-phenylpropanamide] stands less than 100 nM; under `C[C@H](Nc1cnc(-c2ccccc2)n(CC(=O)NCc2cc3cnccc3[nH]2)c1=O)c1ccc2oc3ccccc3c2c1` [Compound 127, (S)—N-((1H-pyrrolo[3,2-c]pyridine-2-yl)methyl)-2-(5-((1-(dibenzo[b,d]furan-2-yl)ethyl)amino)-6-oxo-2-phenylpyrimidin-1(6H)-yl)acetamide], less than 100 nM.
`O=C(Cn1c(-c2ccccc2)ncc(NCCCc2ccc(OC3COC3)cc2)c1=O)NCc1cc2cnccc2[nH]1` [Compound 103, N-((1H-pyrrolo[3,2-c]pyridine-2-yl)methyl)-2-(5-((3-(4-(oxetan-3-yl-oxy)phenyl)propyl)amino)-6-oxo-2-phenylpyrimidin-1(6H)-yl)acetamide]: the IC50 was less than 100 nM.
Turning to `O=C(Cn1c(-c2ccccc2)ncc(NC(=O)c2ccc(-c3cnc[nH]3)cc2)c1=O)NCc1cc2cnccc2[nH]1` [Compound 174, N-(1-(2-(((1H-pyrrolo[3,2-c]pyridine-2-yl)methyl)amino)-2-oxoethyl)-6-oxo-2-phenyl-1,6-dihydropyrimidin-5-yl)-4-(1H-imidazol-5-yl)benzamide], the IC50 was less than 100 nM.
Consider `C[C@@H](Nc1cnc(N2CCCCC2)n(CC(=O)NCc2cc3cnccc3[nH]2)c1=O)c1csc(-c2ccccc2)n1` [Compound 463, (R)-N-((1H-pyrrolo[3,2-c]pyridin-2-yl)methyl)-2-(6-oxo-5-((1-(2-phenylthiazol-4-yl)-ethyl)amino)-2-(piperidin-1-yl)-pyrimidin-1(6H)-yl)acetamide], for which the IC50 was in the range of 100 to 1000 nM.
Consider `O=C(COc1cc(C(=O)NCc2ccc3oc4ccccc4c3c2)nc(-c2ccccc2)n1)NCc1cc2cnccc2[nH]1` [Compound 268, 6-(2-(((1H-pyrrolo[3,2-c]pyridine-2-yl)methyl)amino)-2-oxoethoxy)-N-(dibenzo[b,d]furan-2-ylmethyl)-2-phenylpyrimidine-4-carboxamide], for which the IC50 is more than 1000 nM.
Turning to `O=C(Cn1c(-c2ccccc2)ncc(NC(=O)c2ccc(-c3ccccc3)cc2)c1=O)NCc1cc2cnccc2[nH]1` [Compound 29, N-(1-(2-(((1H-pyrrolo[3,2-c]pyridin-2-yl)methyl)amino)-2-oxoethyl)-6-oxo-2-phenyl-1,6-dihydropyrimidin-5-yl)-[1,1′-biphenyl]-4-carboxamide], the IC50 was less than 100 nM.
`O=C(Cn1c(-c2ccccc2)ncc(NC(=O)c2ccc(-c3cccs3)cc2)c1=O)NCc1cc2cnccc2[nH]1` [Compound 56, N-(1-(2-(((1H-pyrrolo[3,2-c]pyridin-2-yl)methyl)amino)-2-oxoethyl)-6-oxo-2-phenyl-1,6-dihydropyrimidin-5-yl)-4-(thiophen-2-yl)benzamide]: the IC50 was less than 100 nM.
Take `C[C@@H](Nc1ncc(C2CCOCC2)n(CC(=O)NCc2cc3cnccc3[nH]2)c1=O)c1ccc2oc3ccccc3c2c1` [Compound 471, (R)—N-((1H-Pyrrolo[3,2-c]pyridine-2-yl)methyl)-2-(3-((1-(dibenzo[b,d]furan-2-yl)ethyl)amino)-2-oxo-6-(tetrahydro-2H-pyran-4-yl)pyrazin-1(2H)-yl)acetamide]: the IC50 is less than 100 nM.
On to `C[C@@H](NC(=O)Cn1c(-c2ccccc2)cnc(NCCCc2ccccc2)c1=O)c1cc2cnccc2[nH]1` [Compound 12, (R)-N-(1-(1H-pyrrolo[3,2-c]pyridin-2-yl)ethyl)-2-(2-oxo-6-phenyl-3-((3-phenylpropyl)-amino)pyrazin-1(2H)-yl)-acetamide], for which the IC50 lay in the range of 100 to 1000 nM.
Under `CS(=N)(=O)c1ccc(-c2ncc(NCCCc3ccccc3)c(=O)n2CC(=O)NCc2cc3cnccc3[nH]2)cc1` (centres unmarked) [Compound 200, N-((1H-pyrrolo[3,2-c]pyridine-2-yl)methyl)-2-(2-(4-(S-methylsulfonimidoyl)phenyl)-6-oxo-5-((3-phenylpropyl)amino)pyrimidin-1(6H)-yl)acetamide] stands less than 100 nM; under `C[C@@H](Nc1cnc(C2CC2)n(CC(=O)NCc2cc3cnccc3[nH]2)c1=O)c1ccc2oc3ccccc3c2c1` [Compound 342, (R)-N-((1H-pyrrolo[3,2-c]pyridin-2-yl)methyl)-2-(2-cyclopropyl-5-((1-(dibenzo [b,d]furan-2-yl)ethyl)amino)-6-oxo-pyrimidin-1(6H)-yl)-acetamide], 100 to 1000 nM.
Consider `C[C@H](Nc1cnc(N2CCCCC2)n(CC(=O)NCc2cc3cnccc3[nH]2)c1=O)c1ccc2oc3ccccc3c2c1` [Compound 284, (S)-N-((1H-pyrrolo[3,2-c]pyr-idin-2-yl)methyl)-2-(5-((1-(dibenzo[b,d]furan-2-yl)ethyl)-amino)-6-oxo-2-(piperidin-1-yl)pyrimidin-1(6H)-yl)acet-amide], for which the IC50 was less than 100 nM.
With `O=C(CN1C(=O)[C@H](NCCCc2ccccc2)CC[C@H]1c1ccccc1)NCc1cc2cnccc2[nH]1` [Compound 490, N-((1H-pyrrolo[3,2-c]pyridin-2-yl)methyl)-2-((3R,6S)-2-oxo-6-phenyl-3-((3-phenylpropyl)-amino)piperidin-1-yl)acetamide], the IC50 is more than 1000 nM.
For the compound `C[C@@H](Nc1c[nH]c(=O)n(CC(=O)NCc2cc3cnccc3[nH]2)c1=O)c1ccc2oc3ccccc3c2c1` [Compound 338, (R)-N-((1H-pyrrolo[3,2-c]pyridin-2-yl)methyl)-2-(5-((1-(dibenzo[b,d]furan-2-yl)ethyl)-amino)-2,6-dioxo-3,6-dihydro-pyrimidin-1(2H)-yl)acetamide], the IC50 was 100 to 1000 nM.
Regarding `O=C(Cn1c(-c2ccccc2)ncc(NCc2cc(-c3ccccc3)ns2)c1=O)NCc1cc2cnccc2[nH]1` [Compound 458, N-((1H-pyrrolo[3,2-c]pyridin-2-yl)methyl)-2-(6-oxo-2-phen-yl-5-(((3-phenylisothiazol-5-yl)methyl)amino)pyrimidin-1(6H)-yl)acetamide], the IC50 is less than 100 nM.
As to `C[C@@H](Nc1cnc(N2CCN(C)CC2)n(CC(=O)NCc2cc3cnccc3[nH]2)c1=O)c1ccc2oc3ccccc3c2c1` [Compound 389, (R)-N-((1H-pyrrolo[3,2-c]pyridin-2-yl)methyl)-2-(5-((1-(dibenzo[b,d]furan-2-yl)ethyl)-amino)-2-(4-methylpiperazin-1-yl)-6-oxopyrimidin-1(6H)-yl)acetamide], the IC50 is less than 100 nM.
For the compound `O=C(Cn1c(-c2ccc(NC(=O)CO)cc2)ncc(NCc2ccc3oc4ccccc4c3c2)c1=O)NCc1cc2cnccc2[nH]1` [Compound 147, N-((1H-pyrrolo[3,2-c]pyridine-2-yl)methyl)-2-(5-((dibenzo[b,d]furan-2-ylmethyl)amino)-2-(4-(2-hydroxyacetamido)phenyl)-6-oxopyrimidin-1(6H)-yl)acetamide], the IC50 was less than 100 nM.
Consider `COc1ccc(-c2ncc(NCc3ccc4oc5ccccc5c4c3)c(=O)n2CC(=O)NCc2cc3cnccc3[nH]2)cc1` [Compound 119, N-((1H-pyrrolo[3,2-c]pyridin-2-yl)methyl)-2-(5-((dibenzo [b,d]furan-2-ylmethyl)amino)-2-(4-methoxyphenyl)-6-oxo-pyrimidin-1(6H)-yl)acetamide], for which the half-inhibitory concentration (IC50) is less than 100 nM.
`C[C@@H](Nc1ncc(-c2nccs2)n(CC(=O)NCc2cc3cnccc3[nH]2)c1=O)c1ccc2oc3ccccc3c2c1` [Compound 431, (R)-N-((1H-pyrrolo[3,2-c]pyridin-2-yl)methyl)-2-(3-((1-(dibenzo[b,d]furan-2-yl)ethyl)-amino)-2-oxo-6-(thiazol-2-yl)-pyrazin-1(2H)-yl)acetamide]: the IC50 is less than 100 nM.
